Test results: patent US10233177B2, “TRPV1 vanilloid receptor antagonists with a bicyclic portion” (Serentrix LLC, priority 2010, dated 2019)
Like-named read-outs stand apart in the source and are kept apart here.

Biological target: TRPV1 (Rattus norvegicus (Rat), UniProt O35433)
Assay: Ca2+ fluorescence measurements in cultured rat dorsal root ganglia neurons (capsaicin-induced calcium uptake)
Type: cell-based
Conditions: for inhibition at 0.3 µM: DRG neuron
[1] = Table 1, formula IA-C, 300 nM against calcium uptake induced by 30 nM capsaicin, rat DRG neurons, read-out: % inhibition at 300 nM
[2] = capsaicin-induced calcium uptake, rat DRG neurons, read-out: inhibition of the calcium uptake
[3] = 300 nM, rat DRG neurons, read-out: abolition of capsaicin response at 300 nM
[4] = Table 1, against capsaicin-evoked [Ca2+]i mobilization, rat DRG neurons, read-out: IC50

Sequence of TRPV1 (O35433 whole entry): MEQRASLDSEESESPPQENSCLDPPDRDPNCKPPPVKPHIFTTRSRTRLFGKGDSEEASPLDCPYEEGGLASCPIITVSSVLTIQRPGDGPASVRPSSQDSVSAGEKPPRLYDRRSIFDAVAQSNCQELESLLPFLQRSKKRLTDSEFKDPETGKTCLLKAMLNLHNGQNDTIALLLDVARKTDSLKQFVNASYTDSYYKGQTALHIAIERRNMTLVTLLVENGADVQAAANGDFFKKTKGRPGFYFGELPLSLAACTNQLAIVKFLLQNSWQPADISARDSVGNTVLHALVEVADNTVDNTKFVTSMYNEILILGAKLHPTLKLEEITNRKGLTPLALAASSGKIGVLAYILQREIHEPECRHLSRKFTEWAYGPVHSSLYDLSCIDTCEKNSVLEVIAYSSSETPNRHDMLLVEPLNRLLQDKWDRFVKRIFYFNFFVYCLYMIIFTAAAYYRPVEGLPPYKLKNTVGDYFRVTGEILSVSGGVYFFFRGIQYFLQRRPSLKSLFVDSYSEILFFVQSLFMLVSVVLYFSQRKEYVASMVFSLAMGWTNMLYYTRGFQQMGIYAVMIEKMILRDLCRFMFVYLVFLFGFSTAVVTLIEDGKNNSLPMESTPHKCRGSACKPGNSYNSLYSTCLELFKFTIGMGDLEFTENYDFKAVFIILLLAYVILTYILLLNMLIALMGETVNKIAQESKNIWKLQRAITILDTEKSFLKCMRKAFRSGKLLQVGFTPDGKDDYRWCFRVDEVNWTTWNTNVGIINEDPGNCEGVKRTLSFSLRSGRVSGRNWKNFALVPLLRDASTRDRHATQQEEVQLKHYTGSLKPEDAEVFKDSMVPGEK

SMILES | inhibition at 0.3 µM [1] [%] | other results
COc1cc(CNC(=O)CCCC/C=C/C(C)C)ccc1O [Capsaicin, capsaicin, reference compound] | – | dorsal root ganglia neurons with increase in [Ca2+] (capsaicin 0.3 μM): 95%
O=C(NCc1ccc(C(F)(F)F)cc1F)Nc1cccc2[nH]c(=O)[nH]c12 [Example 2, 1-(2-fluoro-4-(trifluoromethyl)benzyl)-3-(2,3-dihydro-2-oxo-1H-benzo[d]imidazol-4-yl)urea] | 28 | –
O=C(NCc1ccc(C(F)(F)F)cc1Cl)Nc1cccc2[nH]c(=O)[nH]c12 [Example 3, 1-(2-chloro-4-(trifluoromethyl)benzyl)-3-(2,3-dihydro-2-oxo-1H-benzo[d]imidazol-4-yl)urea] | 93 | inhibition at 0.3 µM [2]: > 80%
CN(C)c1cc(C(F)(F)F)ccc1CNC(=O)Nc1cccc2[nH]c(=O)[nH]c12 [Example 4, 1-(2-(dimethylamino)-4-(trifluoromethyl)benzyl)-3-(2,3-dihydro-2-oxo-1H-benzo[d]imidazol-4-yl)urea] | 100 | inhibition at 0.3 µM [3]: ~100%; inhibition at 0.3 µM [2]: > 80%; IC50 [4]: 4.07 nM; IC50 (rat DRG neurons, read-out: IC50 against capsaicin-evoked [Ca2+]i mobilization): 4.07 nM
O=C(NCc1ccc(C(F)(F)F)cc1N1CCOCC1)Nc1cccc2[nH]c(=O)[nH]c12 [Example 7, 1-(4-(trifluoromethyl)-2-(4-morpholino)benzyl)-3-(2,3-dihydro-2-oxo-1H-benzo[d]imidazol-4-yl)urea] | 33 | –
O=C(NCc1ccc(C(F)(F)F)cc1-n1cncn1)Nc1cccc2[nH]c(=O)[nH]c12 [Example 8, 1-(4-(trifluoromethyl)-2-(1H-1,2,4-triazol-1-yl)benzyl)-3-(2,3-dihydro-2-oxo-1H-benzo[d]imidazol-4-yl)urea] | 2 | –
O=C(NCc1ccc(F)cc1)Nc1cccc2[nH]c(=O)[nH]c12 [Example 9, 1-(4-fluorobenzyl)-3-(2,3-dihydro-2-oxo-1H-benzo[d]imidazol-4-yl)urea] | 18 | –
O=C(NCc1ccc(Cl)cc1)Nc1cccc2[nH]c(=O)[nH]c12 [Example 10, 1-(4-chlorobenzyl)-3-(2,3-dihydro-2-oxo-1H-benzo[d]imidazol-4-yl)urea] | 89 | inhibition at 0.3 µM [2]: > 80%; IC50 [4]: 79 nM
CN(C)c1cc(Cl)ccc1CNC(=O)Nc1cccc2[nH]c(=O)[nH]c12 [Example 11, 1-(4-chloro-2-(dimethylamino)benzyl)-3-(2,3-dihydro-2-oxo-1H-benzo[d]imidazol-4-yl)urea] | 82 | inhibition at 0.3 µM [2]: > 80%; IC50 [4]: 12 nM
CN(C)c1ccc(CNC(=O)Nc2cccc3[nH]c(=O)[nH]c23)cc1 [Example 14, 1-(4-(dimethylamino)benzyl)-3-(2,3-dihydro-2-oxo-1H-benzo[d]imidazol-4-yl)urea] | 32 | –
O=C(NCc1ccc(N2CCCC2)cc1)Nc1cccc2[nH]c(=O)[nH]c12 [Example 15, 1-(4-(pyrrolidin-1-yl)benzyl)-3-(2,3-dihydro-2-oxo-1H-benzo[d]imidazol-4-yl)urea] | 54 | –
O=C(NCc1ccc(N2CCCCC2)cc1)Nc1cccc2[nH]c(=O)[nH]c12 [Example 16, 1-(4-(piperidin-1-yl)benzyl)-3-(2,3-dihydro-2-oxo-1H-benzo[d]imidazol-4-yl)urea] | 86 | inhibition at 0.3 µM [2]: > 80%
Cc1ccc(CNC(=O)Nc2cccc3[nH]c(=O)[nH]c23)cc1 [Example 17, 1-(4-methylbenzyl)-3-(2,3-dihydro-2-oxo-1H-benzo[d]imidazol-4-yl)urea] | 44 | –
Cc1ccc(CNC(=O)Nc2cccc3[nH]c(=O)[nH]c23)c(N(C)C)c1 [Example 18, 1-(2-(dimethylamino)-4-methylbenzyl)-3-(2,3-dihydro-2-oxo-1H-benzo[d]imidazol-4-yl)urea] | 54 | –
Cc1ccc(CNC(=O)Nc2cccc3[nH]c(=O)[nH]c23)c(N2CCCCC2)c1 [Example 19, 1-(4-methyl-2-(piperidin-1-yl)benzyl)-3-(2,3-dihydro-2-oxo-1H-benzo[d]imidazol-4-yl)urea] | 99 | inhibition at 0.3 µM [3]: ~100%; inhibition at 0.3 µM [2]: > 80%
O=C(NCc1ccncc1)Nc1cccc2[nH]c(=O)[nH]c12 [Example 20, 1-(2,3-dihydro-2-oxo-1H-benzo[d]imidazol-4-yl)-3-((pyridin-4-yl)methyl)urea] | 18 | –
O=C(NCc1ccc(Cl)nc1)Nc1cccc2[nH]c(=O)[nH]c12 [Example 21, 1-((6-chloropyridin-3-yl)methyl)-3-(2,3-dihydro-2-oxo-1H-benzo[d]imidazol-4-yl)urea] | 79 | –
O=C(NCc1ccc(Cl)cc1N1CCC(O)C1)Nc1cccc2[nH]c(=O)[nH]c12 (centres unmarked) [Example 22, 1-(4-chloro-2-(3-hydroxypyrrolidin-1-yl)benzyl)-3-(2,3-dihydro-2-oxo-1H-benzo[d]imidazol-4-yl)urea] | 48 | –

SMILES | inhibition at 0.3 µM [1] [%] | other results
O=C(NCc1ccc(C(F)(F)F)cc1)Nc1cccc2oc(=O)[nH]c12 [Example 24, 1-(4-(trifluoromethyl)benzyl)-3-(2,3-dihydro-2-oxobenzo[d]oxazol-4-yl)urea] | 40 | –
O=C(NCc1ccc(C(F)(F)F)cc1F)Nc1cccc2oc(=O)[nH]c12 [Example 25, 1-(2-fluoro-4-(trifluoromethyl)benzyl)-3-(2,3-dihydro-2-oxobenzo[d]oxazol-4-yl)urea] | 40 | –
O=C(NCc1ccc(C(F)(F)F)cc1Cl)Nc1cccc2oc(=O)[nH]c12 [Example 26, 1-(2-chloro-4-(trifluoromethyl)benzyl)-3-(2,3-dihydro-2-oxobenzo[d]oxazol-4-yl)urea] | 55 | –
O=C(NCc1ccc(F)cc1C(F)(F)F)Nc1cccc2oc(=O)[nH]c12 [Example 27, 1-(4-fluoro-2-(trifluoromethyl)benzyl)-3-(2,3-dihydro-2-oxobenzo[d]oxazol-4-yl)urea] | 45 | –
O=C(NCc1ccc(Cl)cc1C(F)(F)F)Nc1cccc2oc(=O)[nH]c12 [Example 28, 1-(4-chloro-2-(trifluoromethyl)benzyl)-3-(2,3-dihydro-2-oxobenzo[d]oxazol-4-yl)urea] | 40 | –
CN(C)c1cc(C(F)(F)F)ccc1CNC(=O)Nc1cccc2oc(=O)[nH]c12 [Example 29, 1-(2-(dimethylamino)-4-(trifluoromethyl)benzyl)-3-(2,3-dihydro-2-oxobenzo[d]oxazol-4-yl)urea] | 8 | –
O=C(NCc1ccc(C(F)(F)F)cc1N1CCCC1)Nc1cccc2oc(=O)[nH]c12 [Example 30, 1-(4-(trifluoromethyl)-2-(pyrrolidin-1-yl)benzyl)-3-(2,3-dihydro-2-oxobenzo[d]oxazol-4-yl)urea] | 44 | –
O=C(NCc1ccc(C(F)(F)F)cc1N1CCOCC1)Nc1cccc2oc(=O)[nH]c12 [Example 32, 1-(4-(trifluoromethyl)-2-(4-morpholino)benzyl)-3-(2,3-dihydro-2-oxobenzo[d]oxazol-4-yl)urea] | 93 | inhibition at 0.3 µM [2]: > 80%
O=C(NCc1ccc(Cl)cc1)Nc1cccc2oc(=O)[nH]c12 [Example 33, 1-(4-chlorobenzyl)-3-(2,3-dihydro-2-oxobenzo[d]oxazol-4-yl)urea] | 16 | –
O=C(NCc1ccc(C(F)(F)F)cc1)Nc1cccc2[nH]c(=O)oc12 [Example 34, 1-(4-(trifluoromethyl)benzyl)-3-(2,3-dihydro-2-oxobenzo[d]oxazol-7-yl)urea] | 19 | –
O=C(NCc1ccc(C(F)(F)F)cc1N1CCCC1)Nc1cccc2[nH]c(=O)oc12 [Example 35, 1-(4-(trifluoromethyl)-2-(pyrrolidin-1-yl)benzyl)-3-(2,3-dihydro-2-oxobenzo[d]oxazol-7-yl)urea] | 90 | inhibition at 0.3 µM [2]: > 80%
O=C(NCc1ccc(C(F)(F)F)cc1N1CCCCC1)Nc1cccc2[nH]c(=O)oc12 [Example 36, 1-(4-(trifluoromethyl)-2-(piperidin-1-yl)benzyl)-3-(2,3-dihydro-2-oxobenzo[d]oxazol-7-yl)urea] | 100 | inhibition at 0.3 µM [3]: ~100%; inhibition at 0.3 µM [2]: > 80%
O=C(NCc1ccc(C(F)(F)F)nc1N1CCCC1)Nc1cccc2[nH]c(=O)[nH]c12 [Example 39, 1-(2-oxo-1,3-dihydrobenzimidazol-4-yl)-3-[[2-pyrrolidin-1-yl-6-(trifluoromethyl)-3-pyridyl]methyl]urea] | – | abolition of capsaicin response at 300 nM (300 nM, rat DRG neurons): around 100%; % inhibition at 300 nM (Table 1, formula IA-C, 300 nM against calcium uptake induced by 30 nM capsaicin, rat DRG neurons): 98%; IC50 [4]: 9.5 nM; inhibition of the calcium uptake (capsaicin-induced calcium uptake, rat DRG neurons): more than 80%
Cc1ccc(CNC(=O)Nc2cccc3[nH]c(=O)[nH]c23)c(N2CCCCC2)n1 [Example 40, 1-[[6-methyl-2-(1-piperidyl)-3-pyridyl]methyl]-3-(2-oxo-1,3-dihydrobenzimidazol-4-yl)urea] | 52 | –
O=C(NCc1ccc(C(F)(F)F)cn1)Nc1cccc2[nH]c(=O)[nH]c12 [Example 41, 1-(2-oxo-1,3-dihydrobenzimidazol-4-yl)-3-[[5-(trifluoromethyl)-2-pyridyl]methyl]urea] | 88 | inhibition at 0.3 µM [2]: > 80%
O=C1COc2cccc(NC(=O)NCc3ccc(C(F)(F)F)cc3)c2N1 [Example 42, 1-(4-(trifluoromethyl)benzyl)-3-(3,4-dihydro-3-oxo-2H-benzo[b][1,4]oxazin-5-yl)urea] | 30 | –
O=C1COc2cccc(NC(=O)NCc3ccc(C(F)(F)F)cc3N3CCCC3)c2N1 [Example 43, 1-(4-(trifluoromethyl)-2-(pyrrolidin-1-yl)benzyl)-3-(3,4-dihydro-3-oxo-2H-benzo[b][1,4]oxazin-5-yl)urea] | 23 | –
O=C1COc2cccc(NC(=O)NCc3ccc(C(F)(F)F)cc3N3CCCCC3)c2N1 [Example 44, 1-(4-(trifluoromethyl)-2-(piperidin-1-yl)benzyl)-3-(3,4-dihydro-3-oxo-2H-benzo[b][1,4]oxazin-5-yl)urea] | 47 | –
